According to patent publication US9969698B2, “Quinoxalinyl-piperazinamide methods of use” (REXAHN PHARMACEUTICALS, INC., priority 2015, dated 2018):
pKd: −log10 of the molar value.

Tests used:
[1] = tested on: human breast tumor xenografts (MDA-MB-231); assay: Breast cancer xenograft model; type: in vivo, mice; settings: for TGI % (first value of the cell) / TGI % (second value of the cell): oral
Text: The efficacy of RX-5902 in human cancer xenograft mouse models is examined. Female nude mice (nu/nu, Harlan or CRL: NU(NCr)-Foxn1^nu, Charles River), 9-10 weeks old, with a body weight (BW) range of 15-30 g on day 1 of the study, are fed ad libitum water (reverse osmosis, 1 ppm C1), and NIH 31 Modified and Irradiated Lab Diet® consisting of 18.0% crude protein, 5.0% crude fat, and 5.0% crude fiber. The mice are housed on irradiated Enrich-o'Cobs™ Laboratory Animal Bedding in static microisolators on a 12-hour light cycle at 20-22° C. (68-72° F.) and 40-60% humidity. The study complies with the recommendations of the Guide for, Care and Use of Laboratory Animals with respect to restraint, husbandry, surgical procedures, feed and fluid regulation, and veterinary care.
Various human tumor cell lines (e.g., HCT116, HT29, H460, H69, Caki-1, CaSki, MiaPaca2, BxPC3 and Colo 205 cells [ATCC, Manassas, Va., USA]) are cultured according to ATCC's instruction. The tumor cells are cultured in tissue culture flasks in a humidified incubator at 37° C., in an atmosphere of 5% CO2 and 95% air.
The cells are harvested during exponential growth and re-suspended with phosphate buffered saline. Each test animal receives a subcutaneous (s.c.) injection of 5×10^6 tumor cells into the right flank and tumor growth is monitored as the average tumor size approaches the target range of 80-300 mm^3. When tumors reach the target size mice are randomized into several groups (n=10-20) and treatment with various regimens of RX-5902 or a positive (e.g., gemcitabine) or negative control (e.g.; vehicle, saline) is initiated. Tumors and body weights are measured regularly until the study is terminated.
Tumors are measured in two dimensions using calipers, and volume is calculated using the formula:
[formula] where w=width and 1=length, in mm, of the tumor. Tumor weight may be estimated with the assumption that 1 mg is equivalent to 1 mm^3 of tumor volume.
Treatment begins on Day 1 in eight groups of mice (n=10-20/group) with established subcutaneous tumors of a particular cell line. Each group is treated according to the study design. All doses are adjusted per body weight. Animals in each group are divided for efficacy and sampling purposes. There are also groups designated to vehicle control and no treatment for sampling purposes.
Treatment efficacy is determined using data from Day 15. The MTV (n), the median tumor volume for the number of animals, n, on Day 15, is determined for each group. Percent tumor growth inhibition (% TGI) is defined as the difference between the MTV of the designated control group (vehicle administration) and the MTV of the drug-treated group, expressed as a percentage of the MTV of the control group: % TGI=[1−(MTVdrug treated/MTVcontrol)]×100 The data set for TGI analysis includes all animals in a group, except those that die due to treatment-related (TR) or non-treatment-related (NTR) causes. An agent that produces at least 60% TGI in this assay is considered to be potentially therapeutically active.
Animals are monitored individually for tumor growth until Day 71. The study protocol specifies a tumor growth delay assay based on the median time to endpoint (TTE) in a treated group versus the control group. Each animal is euthanized for tumor progression (TP) when its tumor reaches the 2000 mm^3 volume endpoint. The time to endpoint (TTE) for each mouse is calculated with the following equation:
[formula] where b is the intercept and m is the slope of the line obtained by linear regression of a log-transformed tumor growth data set. The data set is comprised of the first observation that exceeds the study endpoint volume and the three consecutive observations that immediately precede the attainment of the endpoint volume. […] In instances in which the log-transformed calculated TTE precedes the day prior to reaching endpoint or exceeds the day of reaching tumor volume endpoint, a linear interpolation is performed to approximate TTE. […]

Y593 phospho-p68 = molecular target: T1, Y593 phospho-p68 (Homo sapiens, UniProt P17844); assay: Filter binding assay with 3H-labeled RX-5902; settings: estimated by 50% of p68 bound to RX-5902
T1 construct: purchased Origene (Rockville, Md.)
T1 sequence (P17844 whole entry): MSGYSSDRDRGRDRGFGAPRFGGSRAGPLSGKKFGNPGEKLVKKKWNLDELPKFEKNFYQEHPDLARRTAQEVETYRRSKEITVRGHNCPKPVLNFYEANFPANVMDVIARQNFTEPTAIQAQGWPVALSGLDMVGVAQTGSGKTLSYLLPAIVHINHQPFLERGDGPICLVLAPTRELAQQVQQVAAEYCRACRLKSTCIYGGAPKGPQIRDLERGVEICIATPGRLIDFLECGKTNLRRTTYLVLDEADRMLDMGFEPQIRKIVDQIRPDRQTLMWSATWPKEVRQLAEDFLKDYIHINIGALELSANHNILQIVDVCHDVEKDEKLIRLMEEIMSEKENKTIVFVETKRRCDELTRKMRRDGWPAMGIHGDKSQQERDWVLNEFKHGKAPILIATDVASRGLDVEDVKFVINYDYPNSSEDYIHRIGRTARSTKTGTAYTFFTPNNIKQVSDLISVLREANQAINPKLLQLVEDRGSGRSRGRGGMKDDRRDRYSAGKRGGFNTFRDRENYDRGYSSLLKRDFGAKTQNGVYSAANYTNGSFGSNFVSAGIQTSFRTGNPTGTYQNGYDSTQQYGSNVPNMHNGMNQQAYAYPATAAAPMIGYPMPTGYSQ
Description: (§1) Recombinant β-catenin was used without further treatment whereas recombinant p68 protein was either used as p68 or phosphorylated by c-Abl for filter binding assay. Recombinant c-Abl was obtained from Abeam (Cambridge, Mass.).
(§2) Filter binding studies have been previously described elsewhere (Coombs et al., Proc. Natl. Acad. Sci. USA, 75:5291-5295 (1978). Briefly, recombinant p68 RNA helicase with/without tyrosine phosphorylation was added to the ^3H-labeled RX-5902 (10 Ci/mmol) with PBS. ^3H-labeled RX-5902 was synthesized from Quotient Bioresearch (Cardiff, UK). After incubation at room temperature for 30 minutes, the binding mixtures were loaded onto a nitrocellulose membrane. The membrane was washed five times with PBS, and then dried by vacuum. The amounts of RX-5902 bound to p68 with/without phosphorylation of p68 were determined by ^3H scintillation counting. The same procedure was done with ^3H-labeled RX-5902 alone without addition of p68 RNA helicase and sample p68 RNA helicase alone without addition of the ^3H-labeled RX-5902 as background ^3H scintillation counting. The binding percentages of p68 to the compound were calculated and plotted against concentrations. The dissociation constant (Kd) was estimated by the concentration at 50% of p68 bound to RX-5902 and calculated by linear regression analysis.

unphosphorylated p68 = molecular target: T2, unphosphorylated p68 (Homo sapiens, UniProt P17844); assay: Filter binding assay with 3H-labeled RX-5902; settings: filter binding studies
T2 construct: purchased Origene (Rockville, Md.)
T2 sequence (P17844 whole entry): as above
Description: as §1, §2

[2] = tested on: ovarian tumor xenograft (SK-OV3); assay: Ovarian tumor xenograft model; type: in vivo, mice; settings: oral, 5ON/2OFF
Text: The efficacy of RX-5902 in human cancer xenograft mouse models is examined. Female nude mice (nu/nu, Harlan or CRL: NU(NCr)-Foxn1^nu, Charles River), 9-10 weeks old, with a body weight (BW) range of 15-30 g on day 1 of the study, are fed ad libitum water (reverse osmosis, 1 ppm C1), and NIH 31 Modified and Irradiated Lab Diet® consisting of 18.0% crude protein, 5.0% crude fat, and 5.0% crude fiber. The mice are housed on irradiated Enrich-o'Cobs™ Laboratory Animal Bedding in static microisolators on a 12-hour light cycle at 20-22° C. (68-72° F.) and 40-60% humidity. […]
The cells are harvested during exponential growth and re-suspended with phosphate buffered saline. Each test animal receives a subcutaneous (s.c.) injection of 5×10^6 tumor cells into the right flank and tumor growth is monitored as the average tumor size approaches the target range of 80-300 mm^3. […] Tumors and body weights are measured regularly until the study is terminated.
Tumors are measured in two dimensions using calipers, and volume is calculated using the formula: […]
Treatment efficacy is determined using data from Day 15. The MTV (n), the median tumor volume for the number of animals, n, on Day 15, is determined for each group. […]
Animals are monitored individually for tumor growth until Day 71. […] The time to endpoint (TTE) for each mouse is calculated with the following equation: […]

[3] = tested on: pooled human liver microsomes; assay: RX-5902 metabolism in liver microsomes with CYP450 isozyme-selective chemical inhibitors; type: in vitro ADME
Description: Two in vitro studies were performed to examine the involvement of specific cytochrome P450 (CYP450) isozymes in the in vitro metabolism of RX-5902. In the first study, the loss of RX-5902 was measured after incubation with expressed CYP450 isozymes (1A2, 2A6, 2B6, 2C8, 2C9, 2C19, 2D6, 3A4 and 3A5). […] In the second study, RX-5902 was incubated with pooled human liver microsomes in the presence of CYP450 isozyme-selective chemical inhibitors. The inhibitors tested were selective for 1A2, 2A6, 2B6, 2C8, 2C9, 2C19, 2D6, and 3A4/5.

Question: What does the source list for `COc1cc(OC)cc(N2CCN(C(=O)Nc3nc4cc(F)ccc4nc3OC)CC2)c1` [RX-5902, 4-(3,5-dimethoxyphenyl)-N-(7-fluoro-3-methoxyquinoxalin-2-yl)piperazine-1-carboxamide]?
Answer: TGI % (first value of the cell) ([1]; 160 mg/kg QWK): 44%; TGI % (second value of the cell) ([1]; 160 mg/kg QWK): 39%; TGI % (first value of the cell) ([1]; 320 mg/kg QWK): 65%; TGI % (second value of the cell) ([1]; 320 mg/kg QWK): 82%; TGI % (first value of the cell) ([1]; 600 mg/kg QWK): 83%; TGI % (second value of the cell) ([1]; 600 mg/kg QWK): 165%; survival in treated mice ([1]; oral, 160, 320 and 600 mg/kg weekly): extending the survival; pKd (Y593 phospho-p68): ~7.72; interaction with unphosphorylated p68 (unphosphorylated p68): did not interact; TGD % ([2]; 40 mg/kg): 6%^; TGD % ([2]; 70 mg/kg): 49%^; inhibition of RX-5902 metabolism ([3]; in the presence of a CYP3A4/5-selective inhibitor (ketoconazole)): Marked inhibition; inhibition of RX-5902 metabolism ([3]; with inhibitors of the other isozymes (1A2, 2A6, 2B6, 2C8, 2C9, 2C19, 2D6)): no significant inhibition
